Where two headings read alike, the source gives them in different places.
Key:
[1] = logP by HPLC (EEC Directive 79/831 Annex V.A8, gradient method); assay type: physicochemical; settings: for chromatographic logP: pH 2.3; for logP (pH 2): HPLC, acetonitrile/0.1% aqueous phosphoric acid
Meloidogyne incognita = assay: Meloidogyne test (gall formation on lettuce roots); assay type: in vivo; settings: 20 ppm active compound, after 14 days
Protocol: To produce a suitable preparation of active compound, 1 part by weight of active compound is mixed with the stated amounts of solvent and emulsifier, and the concentrate is diluted with water to the desired concentration.
Containers are filled with sand, solution of active compound, Meloidogyne incognita egg/larvae suspension and lettuce seeds. The lettuce seeds germinate and the plants develop. On the roots, galls are formed.
After the desired period of time, the nematicidal action is determined in % using gall formation as a measure. 100% means that no galls were found; 0% means that the number of galls on the treated plants corresponds to that of the untreated control.

[2] = tested on: Boophilus microplus (SP-resistant Parkhurst strain); assay: Test with Boophilus microplus resistant (SP-resistant Parkhurst strain), injection; assay type: in vivo; settings: injected, checked after 7 days; for activity (no oviposition of fertile eggs): 0.16 μg active compound per animal; for kill (activity: no oviposition of fertile eggs): 0.8 μg active compound per animal
Protocol: Test With Boophilus Microplus Resistant (SP-Resistant Parkhurst Strain)
20 mg of active compound are dissolved in 1 ml of dimethyl sulphoxide, more dilute concentrations are prepared by dilution in the same solvent.
The test is carried out in 5 replications. 1 μl of the solutions is injected into the abdomen, and the animals are transferred into dishes and kept in a climatized room. After 7 days, the activity is checked by examination for oviposition of fertile eggs. Eggs whose fertility is not visible from the outside are stored in glass tubes in a controlled-environment cabinet until the larvae have hatched. An activity of 100% means that no tick has produced any fertile eggs.

[3] = tested on: Ctenocephalides felis, strain "Georgi"; assay: Test with cat fleas/oral uptake; assay type: in vivo; settings: 100 ppm in citrated cattle blood, after 28 h
Protocol: Test With Cat Fleas/Oral Uptake
To produce a suitable formulation, a suitable solution of active compound is prepared from 20 mg of active compound and 1 ml of DMSO. 15 μl of this formulation are added to 3 ml of citrated cattle blood and stirred.
10 unfed adult fleas (Ctenocephalides felis, strain “Georgi”) are placed into a chamber (Ø3.2 cm) whose top and bottom are closed with gauze. A metal cylinder whose underside is covered with parafilm is placed onto the chamber. The cylinder contains 3 ml of blood/active compound formulation which can be taken up by the fleas through the parafilm membrane. Whereas the blood is warmed to 37° C., the temperature in the area of the flea chambers is adjusted to 25° C. Controls are mixed with the same volume of DMSO, without addition of a compound. The determinations are carried out in triplicate.
After 28 h, the mortality in % (=dead fleas) is determined.
Compounds which effect an at least 25% kill of the fleas within 28 h are judged to be effective.

[4] = tested on: greenhouse red spider mite (Tetranychus urticae); assay: Tetranychus test (OP-resistant/dip treatment); assay type: in vivo; settings: active compound concentration 0.1%, after 7 days
Protocol: Tetranychus Test (OP-Resistant/Dip Treatment)
(§1) To produce a suitable preparation of active compound, 1 part by weight of active compound is mixed with the stated amounts of solvent and emulsifier, and the concentrate is diluted with emulsifier-containing water to the desired concentration.
Bean plants (Phaseolus vulgaris) which are heavily infested by all stages of the greenhouse red spider mite (Tetranychus urticae) are dipped into a preparation of active compound of the desired concentration.
After the desired period of time, the effect in % is determined. 100% means that all spider mites have been killed; 0% means that none of the spider mites have been killed.

[5] = tested on: larvae of the mustard beetle (Phaedon cochleariae); assay: Phaedon larvae test (cabbage leaf dip); assay type: in vivo; settings: active compound concentration 0.1%, after 7 days
Protocol: as §1
After the desired period of time, the kill in % is determined. 100% means that all beetle larvae have been killed; 0% means that none of the beetle larvae have been killed.

[6] = tested on: peach aphid (Myzus persicae); assay: Myzus test (cabbage leaf dip); assay type: in vivo; settings: active compound concentration 0.1%, after 6 days
Protocol: as §1
Cabbage leaves (Brassica oleracea) which are heavily infested by the peach aphid (Myzus persicae) are treated by being dipped into the preparation of active compound of the desired concentration.
After the desired period of time, the kill in % is determined. 100% means that all aphids have been killed; 0% means that none of the aphids have been killed.

Lucilia cuprina larvae = assay: Blowfly larvae test (development-inhibitory action); assay type: in vivo; settings: 100 ppm active compound
Protocol: Blowfly Larvae Test (Development-Inhibitory Action)
20 mg of active compound are dissolved in 1 ml of dimethyl sulphoxide, more dilute concentrations are prepared by dilution with distilled water.
About 20 Lucilia cuprina larvae are introduced into a test tube which contains about 1 cm^3 of horse meat and 0.5 ml of the preparation of active compound to be tested. After 24 hours and 48 hours, the efficacy of the preparation of active compound is determined. The test tubes are transferred into a beaker whose bottom is covered with sand. After a further 2 days, the test tubes are removed and the pupae are counted.
The efficacy of the preparation of active compound is assessed by the number of flies that have hatched after 1.5 times the period of development of an untreated control. 100% means that no flies have hatched; 0% means that all flies have hatched normally.

SMILES	nematicidal action (activity, gall formation as a measure) (Meloidogyne incognita) [%]	activity (no oviposition of fertile eggs) [2] [%]	logP (pH 2) [1]	further results
FC(F)=C(F)CCCCSc1nc(-c2ccccc2)cs1 [Example 1, 4-phenyl-2-(6,6,5-trifluorohex-5-enylthio)-1,3-thiazole]	100	100	–	chromatographic logP ([1]; read-out: logP (pH 2.3)): 5.21
[O-][S+](CCCCC(F)=C(F)F)c1nc(-c2ccccc2)cs1 (stereo not shown) [Example 2, 4-phenyl-2-(6,6,5-trifluorohex-5-enylsulphinyl)-1,3-thiazole]	–	100	–	chromatographic logP ([1]; read-out: logP (pH 2.3)): 3.47
O=S(=O)(CCCCC(F)=C(F)F)c1nc(-c2ccccc2)cs1 [Example 3, 4-phenyl-2-(6,6,5-trifluorohex-5-enylsulphonyl)-1,3-thiazole]	–	100	–	chromatographic logP [1]: 3.67
FC(F)=CCCCCSc1nc(-c2ccccc2)cs1 [Example 4]	100	100	5.38	kill (mortality) [3]: 100%; kill (activity: no oviposition of fertile eggs) [2]: 100%; kill [4]: 98%
FC(F)=C(F)CCCCSc1nc(Cl)c(Cl)s1 [Example 5]	98	–	5.33	kill (activity: no oviposition of fertile eggs) [2]: 100%; kill [5]: 100%
FC(F)=CCCCCSc1nc(Cl)c(Cl)s1 [Example 6]	100	–	5.53	kill [5]: 100%; kill [6]: 95%; kill [4]: 100%
FC(F)=C(F)CCCCSc1nc(-c2ccccc2)c(-c2ccccc2)o1 [Example 7]	100	–	5.96	–
FC(F)=CCCCCSc1nc(-c2ccccc2)c(-c2ccccc2)o1 [Example 8]	100	–	6.14	kill (activity: no oviposition of fertile eggs) [2]: 100%; kill [5]: 100%; kill [4]: 98%; kill (efficacy: flies not hatched) (Lucilia cuprina larvae): 100%
Cc1csc(SCCCCC(F)=C(F)F)n1 [Example 9]	–	–	3.85	–
FC(F)=C(F)CCCCSc1nc(Cl)c(C(F)(F)F)s1 [Example 10]	–	–	5.40	–
Cc1nc(SCCCCC(F)=C(F)F)sc1C [Example 11]	–	–	4.20	–
FC(F)=CCCCCSc1nc(Cl)c(C(F)(F)F)s1 [Example 12]	–	–	5.62	–

Reference: patent US20040106658A1, “Heterocyclic fluoroalkenyl thioethers and the use thereof as pesticides(III)” (priority 2000, published 2004)
